Assay type in all cases: biochemical
The target in assay [1] is T1, 320 wild-type protein kinases (Homo sapiens, UniProt P29320).
T1 sequence (P29320 21-983): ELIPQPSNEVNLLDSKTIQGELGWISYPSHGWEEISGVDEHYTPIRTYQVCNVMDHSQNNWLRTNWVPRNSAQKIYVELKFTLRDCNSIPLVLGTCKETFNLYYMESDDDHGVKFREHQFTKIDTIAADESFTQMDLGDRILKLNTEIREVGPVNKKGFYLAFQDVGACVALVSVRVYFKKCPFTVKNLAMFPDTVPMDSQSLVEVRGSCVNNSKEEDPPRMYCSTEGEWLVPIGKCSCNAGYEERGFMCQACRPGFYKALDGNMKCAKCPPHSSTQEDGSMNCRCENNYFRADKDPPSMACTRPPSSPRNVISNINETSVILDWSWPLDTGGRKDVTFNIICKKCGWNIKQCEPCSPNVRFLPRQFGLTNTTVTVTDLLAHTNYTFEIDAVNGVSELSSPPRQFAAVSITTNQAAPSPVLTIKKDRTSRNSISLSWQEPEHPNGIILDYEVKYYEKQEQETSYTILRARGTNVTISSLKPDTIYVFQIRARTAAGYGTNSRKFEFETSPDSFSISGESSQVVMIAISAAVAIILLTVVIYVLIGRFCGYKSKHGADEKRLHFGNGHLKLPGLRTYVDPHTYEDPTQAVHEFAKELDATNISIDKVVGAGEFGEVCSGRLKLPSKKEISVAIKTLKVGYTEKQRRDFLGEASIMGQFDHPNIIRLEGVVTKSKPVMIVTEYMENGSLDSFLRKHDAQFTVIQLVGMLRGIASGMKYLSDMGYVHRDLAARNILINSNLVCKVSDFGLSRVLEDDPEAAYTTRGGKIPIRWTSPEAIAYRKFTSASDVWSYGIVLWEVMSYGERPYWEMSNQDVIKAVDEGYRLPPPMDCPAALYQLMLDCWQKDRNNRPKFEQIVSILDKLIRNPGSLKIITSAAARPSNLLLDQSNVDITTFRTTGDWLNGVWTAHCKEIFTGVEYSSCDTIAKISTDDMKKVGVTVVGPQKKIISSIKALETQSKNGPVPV
Particulars: singlicate. The source says: (§1) Table S4. Profiling of two compounds at two concentrations against 320 wild-type protein kinases; singlicate measurement; Residual activities (% of control).

In assay [2] the target is T2, 320 wild-type protein kinases (Homo sapiens, UniProt P54753).
T2 sequence (P54753 34-998): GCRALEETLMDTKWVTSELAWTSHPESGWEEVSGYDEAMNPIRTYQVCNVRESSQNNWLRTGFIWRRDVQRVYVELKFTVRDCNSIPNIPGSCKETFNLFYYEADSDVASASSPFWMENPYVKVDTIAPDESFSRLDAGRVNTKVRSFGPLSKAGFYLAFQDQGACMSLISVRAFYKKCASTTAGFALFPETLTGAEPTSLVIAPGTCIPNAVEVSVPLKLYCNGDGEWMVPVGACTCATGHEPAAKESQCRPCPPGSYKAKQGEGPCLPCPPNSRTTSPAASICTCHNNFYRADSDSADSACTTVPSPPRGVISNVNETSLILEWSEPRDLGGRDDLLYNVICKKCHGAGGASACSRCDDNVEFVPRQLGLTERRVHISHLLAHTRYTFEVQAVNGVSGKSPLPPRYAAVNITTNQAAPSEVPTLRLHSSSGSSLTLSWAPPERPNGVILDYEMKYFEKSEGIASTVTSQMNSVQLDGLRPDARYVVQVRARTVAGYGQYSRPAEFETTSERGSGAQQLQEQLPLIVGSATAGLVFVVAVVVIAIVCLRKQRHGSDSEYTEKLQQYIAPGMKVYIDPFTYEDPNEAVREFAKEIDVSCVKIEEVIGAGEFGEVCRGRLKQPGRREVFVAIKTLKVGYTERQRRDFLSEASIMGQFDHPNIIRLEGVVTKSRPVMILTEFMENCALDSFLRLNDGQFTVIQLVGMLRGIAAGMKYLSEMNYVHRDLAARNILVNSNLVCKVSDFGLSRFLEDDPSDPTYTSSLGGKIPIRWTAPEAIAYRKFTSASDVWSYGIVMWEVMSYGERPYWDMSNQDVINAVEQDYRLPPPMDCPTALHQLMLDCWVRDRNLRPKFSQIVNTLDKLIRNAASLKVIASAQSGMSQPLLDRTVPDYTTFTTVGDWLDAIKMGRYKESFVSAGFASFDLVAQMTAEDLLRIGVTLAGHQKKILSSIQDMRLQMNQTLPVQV
Conditions: singlicate.
Excerpt: as §1

The target in assay [3] is 320 wild-type protein kinases (Homo sapiens, UniProt Q9BQI3). Conditions: HRI, singlicate.
Excerpt: as §1

Assay [4] has as its target 320 wild-type protein kinases (Homo sapiens, UniProt P08581). Conditions: MET, singlicate.
Excerpt: as §1

Assay [5] concerns the target T3, 320 wild-type protein kinases (Homo sapiens, UniProt Q13470).
T3 sequence (Q13470 1-666): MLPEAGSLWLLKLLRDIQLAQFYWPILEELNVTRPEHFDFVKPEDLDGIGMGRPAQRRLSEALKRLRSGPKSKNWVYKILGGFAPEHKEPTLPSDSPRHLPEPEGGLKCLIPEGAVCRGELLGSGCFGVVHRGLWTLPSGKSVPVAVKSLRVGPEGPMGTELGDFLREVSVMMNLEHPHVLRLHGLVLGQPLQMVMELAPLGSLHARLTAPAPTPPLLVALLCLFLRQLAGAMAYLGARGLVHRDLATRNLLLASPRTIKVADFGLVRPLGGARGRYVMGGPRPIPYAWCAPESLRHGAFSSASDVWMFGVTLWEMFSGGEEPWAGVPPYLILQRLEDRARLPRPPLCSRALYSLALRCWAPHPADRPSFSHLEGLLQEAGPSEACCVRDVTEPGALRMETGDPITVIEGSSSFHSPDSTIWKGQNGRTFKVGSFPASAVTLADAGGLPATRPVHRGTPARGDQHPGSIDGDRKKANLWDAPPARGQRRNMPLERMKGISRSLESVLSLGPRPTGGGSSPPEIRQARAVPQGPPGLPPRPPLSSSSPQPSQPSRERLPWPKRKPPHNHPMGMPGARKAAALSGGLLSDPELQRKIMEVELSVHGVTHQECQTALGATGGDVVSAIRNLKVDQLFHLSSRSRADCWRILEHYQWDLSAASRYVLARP
Particulars: kinase TNK1, singlicate.
Excerpt: as §1

Assay [6] concerns the target 320 wild-type protein kinases (Homo sapiens, UniProt P17612). Conditions: PKA, singlicate.
Excerpt: as §1

Each structure is given as a SMILES string. Like-named read-outs stand apart in the source and are kept apart here.

320 wild-type protein kinases (Homo sapiens, UniProt Q9BQI3), sequence (Q9BQI3 whole entry): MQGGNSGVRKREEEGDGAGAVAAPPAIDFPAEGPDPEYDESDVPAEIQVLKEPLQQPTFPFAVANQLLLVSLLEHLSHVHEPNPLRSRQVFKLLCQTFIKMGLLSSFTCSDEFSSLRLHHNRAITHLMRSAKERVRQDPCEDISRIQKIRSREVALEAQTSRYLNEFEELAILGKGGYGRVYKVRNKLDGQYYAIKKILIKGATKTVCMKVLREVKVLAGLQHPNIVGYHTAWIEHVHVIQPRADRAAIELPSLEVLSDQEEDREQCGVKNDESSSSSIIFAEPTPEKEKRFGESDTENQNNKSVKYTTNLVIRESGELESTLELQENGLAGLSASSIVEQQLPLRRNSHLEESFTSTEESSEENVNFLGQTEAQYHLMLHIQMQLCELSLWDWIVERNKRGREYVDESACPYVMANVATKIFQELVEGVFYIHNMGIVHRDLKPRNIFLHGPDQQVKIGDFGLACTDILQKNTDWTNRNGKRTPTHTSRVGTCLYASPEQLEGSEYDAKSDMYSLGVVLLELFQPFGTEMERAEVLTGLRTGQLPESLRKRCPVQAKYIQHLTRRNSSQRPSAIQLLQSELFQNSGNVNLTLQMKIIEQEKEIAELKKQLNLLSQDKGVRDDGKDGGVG
320 wild-type protein kinases (Homo sapiens, UniProt P08581), sequence (P08581 25-1390): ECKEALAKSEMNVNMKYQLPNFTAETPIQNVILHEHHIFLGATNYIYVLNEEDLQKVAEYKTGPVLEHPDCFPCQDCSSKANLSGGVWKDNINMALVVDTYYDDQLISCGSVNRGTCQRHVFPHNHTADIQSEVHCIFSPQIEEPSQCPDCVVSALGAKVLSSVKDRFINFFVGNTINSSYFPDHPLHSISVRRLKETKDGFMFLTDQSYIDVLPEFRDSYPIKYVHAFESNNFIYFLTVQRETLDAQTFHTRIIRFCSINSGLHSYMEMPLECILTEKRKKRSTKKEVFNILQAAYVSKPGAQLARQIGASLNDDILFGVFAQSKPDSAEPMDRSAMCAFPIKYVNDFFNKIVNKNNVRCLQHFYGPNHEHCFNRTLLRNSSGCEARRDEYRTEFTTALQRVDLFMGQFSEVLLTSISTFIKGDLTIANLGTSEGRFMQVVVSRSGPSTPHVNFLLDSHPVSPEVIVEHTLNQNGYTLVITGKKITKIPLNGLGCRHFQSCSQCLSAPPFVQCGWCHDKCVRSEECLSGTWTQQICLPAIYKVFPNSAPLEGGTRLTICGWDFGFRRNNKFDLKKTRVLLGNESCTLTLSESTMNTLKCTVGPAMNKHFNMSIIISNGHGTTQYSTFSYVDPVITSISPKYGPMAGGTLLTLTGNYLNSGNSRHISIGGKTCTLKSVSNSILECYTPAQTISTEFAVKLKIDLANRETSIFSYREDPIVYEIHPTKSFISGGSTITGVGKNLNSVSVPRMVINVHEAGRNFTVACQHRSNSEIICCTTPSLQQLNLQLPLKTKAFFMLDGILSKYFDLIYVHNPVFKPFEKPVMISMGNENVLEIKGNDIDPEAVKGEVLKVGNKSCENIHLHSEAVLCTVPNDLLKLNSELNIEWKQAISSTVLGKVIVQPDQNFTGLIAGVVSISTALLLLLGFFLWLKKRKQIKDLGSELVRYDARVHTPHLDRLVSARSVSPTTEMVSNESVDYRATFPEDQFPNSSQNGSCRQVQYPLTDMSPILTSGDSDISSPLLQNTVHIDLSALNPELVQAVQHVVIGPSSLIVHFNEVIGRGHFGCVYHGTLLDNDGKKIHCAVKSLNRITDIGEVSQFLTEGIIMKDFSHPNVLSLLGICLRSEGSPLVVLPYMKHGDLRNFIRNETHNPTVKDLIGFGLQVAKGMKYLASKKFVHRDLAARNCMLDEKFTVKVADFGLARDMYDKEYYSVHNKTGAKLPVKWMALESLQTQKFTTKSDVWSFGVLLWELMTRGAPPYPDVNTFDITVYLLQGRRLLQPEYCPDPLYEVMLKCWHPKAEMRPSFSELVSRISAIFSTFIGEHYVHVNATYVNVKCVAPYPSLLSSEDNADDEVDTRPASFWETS

For `C#Cc1cc(Nc2ncnc3cc(OC)c(OC)cc23)ccc1Cl` [Compound 45], the Residual activity in assay [1] (EPHA3, 1.0E-06 M) was 111 % of control; in assay [1] (EPHA3, 1.0E-07 M) it was 128 % of control; in assay [2] (EPHB3, 1.0E-06 M) it was 113 % of control; in assay [2] (EPHB3, 1.0E-07 M), 99 % of control; in assay [3] (1.0E-06 M), 87 % of control; in assay [3] (1.0E-07 M), 101 % of control. Further, the Residual activity in assay [4] (1.0E-06 M) was 70 % of control; in assay [4] (1.0E-07 M) it was 99 % of control; in assay [6] (1.0E-06 M) it was 90 % of control; in assay [6] (1.0E-07 M), 93 % of control. Further, the “Residual activity, TNK1” value is given as 83 % of control in assay [5] (assay conc. 1.0E-06 M) and 117 % of control in assay [5] (assay conc. 1.0E-07 M).
For the compound `C#Cc1cc(Nc2ncnc3cc(I)ccc23)ccc1Cl` [Compound 41], the Residual activity in assay [1] (EPHA3, 1.0E-06 M) is 119 % of control; in assay [1] (EPHA3, 1.0E-07 M), 118 % of control; in assay [2] (EPHB3, 1.0E-06 M) it was 100 % of control; in assay [2] (EPHB3, 1.0E-07 M) it was 110 % of control; in assay [3] (1.0E-06 M), 89 % of control; in assay [3] (1.0E-07 M), 108 % of control. In addition, the Residual activity in assay [4] (1.0E-06 M) is listed as 89 % of control; in assay [4] (1.0E-07 M), 93 % of control; in assay [6] (1.0E-06 M), 82 % of control; in assay [6] (1.0E-07 M), 88 % of control. Besides, the “Residual activity, TNK1” value in assay [5] (assay conc. 1.0E-06 M) is 112 % of control; in assay [5] (assay conc. 1.0E-07 M), 130 % of control.

For the origin of these results see publication PMC9329436, “Optimization of the 4-anilinoquin(az)oline scaffold as epidermal growth factor receptor (EGFR) inhibitors for chordoma utilizing a toxicology profiling assay platform” (Scientific Reports, 2022).
